We go through six compounds from article PMC12428505, “A Bifunctional SARS-CoV-2 Entry Inhibitor Targeting the Host Protease TMPRSS2 and Viral Spike Protein HR1 Region” (International Journal of Molecular Sciences, 2025).

Like-named read-outs stand apart in the source and are kept apart here. *1 amine or outer side, *2 acyl side, *3 side chain or, on linkers, in order; H or OH if unused. Where a SMILES comes first, the peptide text is derived from it. [ ]: non-standard residue; d: D form. The star is where a group is joined. PEG24 = NCCOCCOCCOCCOCCOCCOCCOCCOCCOCCOCCOCCOCCOCCOCCOCCOCCOCCOCCOCCOCCOCCOCCOCCOCCC(=O)O; X1 = N=C(N)Nc1ccc(C(=O)Oc2ccc(CC(=O)OCC(=O)*)cc2)cc1; X2 = CN(Cc1cn(CC(=O)[*:2])nn1)[*:1]; X3 = O=C(Cn1cc(CN[*:1])nn1)[*:2]; PEG4 = NCCOCCOCCOCCOCCC(=O)O

For assay [1], the system named is wild-type SARS-CoV-2 PsV. Description: microbe, parasite or virus in culture. The following applies: Severe acute respiratory syndrome coronavirus 2, Caco-2.
For assay [2], the system named is wild-type SARS-CoV-2 PsV. To be noted: 48 h.

Compound `CN(C)C(=O)COC(=O)Cc1ccc(OC(=O)c2ccc(NC(=N)N)cc2)cc1` [Camostat] gave an IC50 in assay [1] of 4600 ± 2320 nM. With `CC[C@H](C)[C@H](NC(=O)[C@H](CCCNC(=N)N)NC(=O)[C@H](CCSC)NC(=O)[C@H](CC(C)C)NC(=O)[C@H](CCC(=O)O)NC(=O)[C@H](Cc1ccc(O)cc1)NC(=O)[C@@H](NC(=O)[C@H](CCCCN)NC(=O)[C@H](CCC(N)=O)NC(=O)[C@H](CC(C)C)NC(=O)[C@@H](NC(=O)[C@H](Cc1c[nH]c2ccccc12)NC(=O)[C@H](CCC(=O)O)NC(=O)[C@H](CCCCN)NC(=O)[C@H](CC(=O)O)NC(=O)CCOCCOCCOCCOCCNC(=O)Cn1cc(CN(C)C(=O)COC(=O)Cc2ccc(OC(=O)c3ccc(NC(=N)N)cc3)cc2)nn1)[C@@H](C)CC)[C@@H](C)CC)C(=O)N[C@@H](CC(C)C)C(=O)N[C@@H](CC(=O)O)C(=O)N[C@@H](CCC(=O)O)C(=O)N[C@@H](CC(C)C)C(=O)NCC(=O)N[C@@H](Cc1c[nH]cn1)C(=O)N[C@@H](C)C(=O)N[C@@H](CCC(=O)O)C(=O)N[C@@H](C)C(=O)N[C@@H](CO)C(=O)N[C@@H](CCSC)C(=O)N[C@@H](CCCNC(=N)N)C(=O)N[C@H](C(=O)N[C@@H](CCC(=O)O)C(=O)N[C@@H](CC(=O)O)C(=O)N[C@@H](CC(C)C)C(=O)N[C@H](C(=O)N[C@@H](Cc1ccc(O)cc1)C(=O)N[C@@H](CCC(=O)O)C(=O)N[C@@H](Cc1ccccc1)C(=O)N[C@@H](CCSC)C(=O)N[C@@H](CCCCN)C(N)=O)[C@@H](C)CC)C(C)C` [LP4X] (X1-[X2][PEG4]DKEWILQKIYELMRILDELGHAEASMRVEDLIYEFMK-NH2), the 50% inhibitory concentration (IC50) in assay [2] was found to be 400 ± 60 nM. Same read-out and setting: as for `CC[C@H](C)[C@H](NC(=O)[C@H](CCCNC(=N)N)NC(=O)[C@H](CCSC)NC(=O)[C@H](CC(C)C)NC(=O)[C@H](CCC(=O)O)NC(=O)[C@H](Cc1ccc(O)cc1)NC(=O)[C@@H](NC(=O)[C@H](CCCCN)NC(=O)[C@H](CCC(N)=O)NC(=O)[C@H](CC(C)C)NC(=O)[C@@H](NC(=O)[C@H](Cc1c[nH]c2ccccc12)NC(=O)[C@H](CCC(=O)O)NC(=O)[C@H](CCCCN)NC(=O)[C@H](CC(=O)O)NC(=O)CCOCCOCCOCCOCCNC(=O)Cn1cc(CNC(=O)COC(=O)Cc2ccc(OC(=O)c3ccc(NC(=N)N)cc3)cc2)nn1)[C@@H](C)CC)[C@@H](C)CC)C(=O)N[C@@H](CC(C)C)C(=O)N[C@@H](CC(=O)O)C(=O)N[C@@H](CCC(=O)O)C(=O)N[C@@H](CC(C)C)C(=O)NCC(=O)N[C@@H](Cc1c[nH]cn1)C(=O)N[C@@H](C)C(=O)N[C@@H](CCC(=O)O)C(=O)N[C@@H](C)C(=O)N[C@@H](CO)C(=O)N[C@@H](CCSC)C(=O)N[C@@H](CCCNC(=N)N)C(=O)N[C@H](C(=O)N[C@@H](CCC(=O)O)C(=O)N[C@@H](CC(=O)O)C(=O)N[C@@H](CC(C)C)C(=O)N[C@H](C(=O)N[C@@H](Cc1ccc(O)cc1)C(=O)N[C@@H](CCC(=O)O)C(=O)N[C@@H](Cc1ccccc1)C(=O)N[C@@H](CCSC)C(=O)N[C@@H](CCCCN)C(N)=O)[C@@H](C)CC)C(C)C` [LP4Z] (X1-[X3][PEG4]DKEWILQKIYELMRILDELGHAEASMRVEDLIYEFMK-NH2), the figure is 450 ± 200 nM. With `CC[C@H](C)[C@H](NC(=O)[C@H](CCCNC(=N)N)NC(=O)[C@H](CCSC)NC(=O)[C@H](CC(C)C)NC(=O)[C@H](CCC(=O)O)NC(=O)[C@H](Cc1ccc(O)cc1)NC(=O)[C@@H](NC(=O)[C@H](CCCCN)NC(=O)[C@H](CCC(N)=O)NC(=O)[C@H](CC(C)C)NC(=O)[C@@H](NC(=O)[C@H](Cc1c[nH]c2ccccc12)NC(=O)[C@H](CCC(=O)O)NC(=O)[C@H](CCCCN)NC(=O)[C@H](CC(=O)O)NC(=O)CCOCCOCCOCCOCCOCCOCCOCCOCCOCCOCCOCCOCCOCCOCCOCCOCCOCCOCCOCCOCCOCCOCCOCCOCCNC(=O)Cn1cc(CN(C)C(=O)COC(=O)Cc2ccc(OC(=O)c3ccc(NC(=N)N)cc3)cc2)nn1)[C@@H](C)CC)[C@@H](C)CC)C(=O)N[C@@H](CC(C)C)C(=O)N[C@@H](CC(=O)O)C(=O)N[C@@H](CCC(=O)O)C(=O)N[C@@H](CC(C)C)C(=O)NCC(=O)N[C@@H](Cc1c[nH]cn1)C(=O)N[C@@H](C)C(=O)N[C@@H](CCC(=O)O)C(=O)N[C@@H](C)C(=O)N[C@@H](CO)C(=O)N[C@@H](CCSC)C(=O)N[C@@H](CCCNC(=N)N)C(=O)N[C@H](C(=O)N[C@@H](CCC(=O)O)C(=O)N[C@@H](CC(=O)O)C(=O)N[C@@H](CC(C)C)C(=O)N[C@H](C(=O)N[C@@H](Cc1ccc(O)cc1)C(=O)N[C@@H](CCC(=O)O)C(=O)N[C@@H](Cc1ccccc1)C(=O)N[C@@H](CCSC)C(=O)N[C@@H](CCCCN)C(N)=O)[C@@H](C)CC)C(C)C` [LP24X] (X1-[X2][PEG24]DKEWILQKIYELMRILDELGHAEASMRVEDLIYEFMK-NH2), the IC50 in assay [2] was found to be 320 ± 30 nM. With `CC[C@H](C)[C@H](NC(=O)[C@H](CCCNC(=N)N)NC(=O)[C@H](CCSC)NC(=O)[C@H](CC(C)C)NC(=O)[C@H](CCC(=O)O)NC(=O)[C@H](Cc1ccc(O)cc1)NC(=O)[C@@H](NC(=O)[C@H](CCCCN)NC(=O)[C@H](CCC(N)=O)NC(=O)[C@H](CC(C)C)NC(=O)[C@@H](NC(=O)[C@H](Cc1c[nH]c2ccccc12)NC(=O)[C@H](CCC(=O)O)NC(=O)[C@H](CCCCN)NC(=O)[C@H](CC(=O)O)NC(=O)CCOCCOCCOCCOCCOCCOCCOCCOCCOCCOCCOCCOCCOCCOCCOCCOCCOCCOCCOCCOCCOCCOCCOCCOCCNC(=O)Cn1cc(CNC(=O)COC(=O)Cc2ccc(OC(=O)c3ccc(NC(=N)N)cc3)cc2)nn1)[C@@H](C)CC)[C@@H](C)CC)C(=O)N[C@@H](CC(C)C)C(=O)N[C@@H](CC(=O)O)C(=O)N[C@@H](CCC(=O)O)C(=O)N[C@@H](CC(C)C)C(=O)NCC(=O)N[C@@H](Cc1c[nH]cn1)C(=O)N[C@@H](C)C(=O)N[C@@H](CCC(=O)O)C(=O)N[C@@H](C)C(=O)N[C@@H](CO)C(=O)N[C@@H](CCSC)C(=O)N[C@@H](CCCNC(=N)N)C(=O)N[C@H](C(=O)N[C@@H](CCC(=O)O)C(=O)N[C@@H](CC(=O)O)C(=O)N[C@@H](CC(C)C)C(=O)N[C@H](C(=O)N[C@@H](Cc1ccc(O)cc1)C(=O)N[C@@H](CCC(=O)O)C(=O)N[C@@H](Cc1ccccc1)C(=O)N[C@@H](CCSC)C(=O)N[C@@H](CCCCN)C(N)=O)[C@@H](C)CC)C(C)C` [LP24Z] (X1-[X3][PEG24]DKEWILQKIYELMRILDELGHAEASMRVEDLIYEFMK-NH2), 330 ± 10 nM corresponded to half-maximal inhibition in assay [2] (IC50). In the case of “Ac-DKEWILQKIYELMRILDELGHAEASMRVEDLIYEFMK-NH2 [LCB1T, reference compound]”, the 50% inhibitory concentration (IC50) in assay [2] was 440 ± 40 nM.
